US9955691B2, “Macrocyclic picolinamides as fungicides” (DOW AGROSCIENCES LLC, priority 2014, dated 2018)

How the values were obtained:
Leptosphaeria nodorum = test: Fungicidal activity: Wheat Glume Blotch (LEPTNO); format: in vivo; conditions: 100 ppm, 1 DP (1 Day Protectant)
Procedure: Technical grades of materials were dissolved in acetone, which were then mixed with nine volumes of water containing 110 ppm Triton X-100. The fungicide solutions were applied onto wheat seedlings using an automated booth sprayer to run-off. All sprayed plants were allowed to air dry prior to further handling. All fungicides were evaluated using the aforementioned method for their activity vs. all target diseases, unless stated otherwise. Wheat leaf blotch and brown rust activity were also evaluated using track spray applications, in which case the fungicides were formulated as EC formulations, containing 0.1% Trycol 5941 in the spray solutions. Wheat plants (variety Yuma) were grown from seed in a greenhouse in 50% mineral soil/50% soil-less Metro mix until the first leaf was fully emerged, with 7-10 seedlings per pot. These plants were inoculated with an aqueous spore suspension of Septoria tritici either prior to or after fungicide treatments. After inoculation the plants were kept in 100% relative humidity (one day in a dark dew chamber followed by two to three days in a lighted dew chamber at 20° C.) to permit spores to germinate and infect the leaf. The plants were then transferred to a greenhouse set at 20° C. for disease to develop. When disease symptoms were fully expressed on the 1st leaves of untreated plants, infection levels were assessed on a scale of 0 to 100 percent disease severity. Percent disease control was calculated using the ratio of disease severity on treated plants relative to untreated plants. Evaluation of Fungicidal Activity: Wheat Glume Blotch (Leptosphaeria nodorum; Bayer Code […]) Wheat plants (variety Yuma) were grown from seed in a greenhouse in 50% mineral soil/50% soil-less Metro mix until the first leaf was fully emerged, with 7-10 seedlings per pot. These plants were inoculated with an aqueous spore suspension of Leptosphaeria nodorum 24 hr after fungicide treatments. After inoculation the plants were kept in 100% relative humidity (one day in a dark dew chamber followed by two days in a lighted dew chamber at 20° C.) to permit spores to germinate and infect the leaf. The plants were then transferred to a greenhouse set at 20° C. for disease to develop. Fungicide formulation, application and disease assessment followed the procedures as described in the Example A.

[1] = test system: Blumeria graminis f. sp. hordei; test: Fungicidal activity: Barley Powdery Mildew (ERYSGH); format: in vivo; conditions: 100 ppm, 1 DP (1 Day Protectant)
Procedure: Technical grades of materials were dissolved in acetone, which were then mixed with nine volumes of water containing 110 ppm Triton X-100. The fungicide solutions were applied onto wheat seedlings using an automated booth sprayer to run-off. All sprayed plants were allowed to air dry prior to further handling. All fungicides were evaluated using the aforementioned method for their activity vs. all target diseases, unless stated otherwise. Wheat leaf blotch and brown rust activity were also evaluated using track spray applications, in which case the fungicides were formulated as EC formulations, containing 0.1% Trycol 5941 in the spray solutions. Wheat plants (variety Yuma) were grown from seed in a greenhouse in 50% mineral soil/50% soil-less Metro mix until the first leaf was fully emerged, with 7-10 seedlings per pot. These plants were inoculated with an aqueous spore suspension of Septoria tritici either prior to or after fungicide treatments. After inoculation the plants were kept in 100% relative humidity (one day in a dark dew chamber followed by two to three days in a lighted dew chamber at 20° C.) to permit spores to germinate and infect the leaf. The plants were then transferred to a greenhouse set at 20° C. for disease to develop. When disease symptoms were fully expressed on the 1st leaves of untreated plants, infection levels were assessed on a scale of 0 to 100 percent disease severity. Percent disease control was calculated using the ratio of disease severity on treated plants relative to untreated plants. Evaluation of Fungicidal Activity: Barley Powdery Mildew (Blumeria graminis f. Sp. hordei; Synonym: Erysiphe graminis f. Sp. hordei; Bayer Code […]) Barley seedlings (variety Harrington) were propagated in soil-less Metro mix, with each pot having 8 to 12 plants, and used in the test when first leaf was fully emerged. Test plants were inoculated by dusting with infected stock plants 24 hr after fungicide treatments. After inoculation the plants were kept in a greenhouse set at 20° C. for disease to develop. Fungicide formulation, application and disease assessment on the sprayed leaves followed the procedures as described in the Example A.

[2] = test system: Glomerella lagenarium; Anamorph: Colletotrichum lagenarium; test: Fungicidal activity: Cucumber Anthracnose (COLLLA); format: in vivo; conditions: 100 ppm, 1 DP (1 Day Protectant)
Procedure: Technical grades of materials were dissolved in acetone, which were then mixed with nine volumes of water containing 110 ppm Triton X-100. The fungicide solutions were applied onto wheat seedlings using an automated booth sprayer to run-off. All sprayed plants were allowed to air dry prior to further handling. All fungicides were evaluated using the aforementioned method for their activity vs. all target diseases, unless stated otherwise. Wheat leaf blotch and brown rust activity were also evaluated using track spray applications, in which case the fungicides were formulated as EC formulations, containing 0.1% Trycol 5941 in the spray solutions. Wheat plants (variety Yuma) were grown from seed in a greenhouse in 50% mineral soil/50% soil-less Metro mix until the first leaf was fully emerged, with 7-10 seedlings per pot. These plants were inoculated with an aqueous spore suspension of Septoria tritici either prior to or after fungicide treatments. After inoculation the plants were kept in 100% relative humidity (one day in a dark dew chamber followed by two to three days in a lighted dew chamber at 20° C.) to permit spores to germinate and infect the leaf. The plants were then transferred to a greenhouse set at 20° C. for disease to develop. When disease symptoms were fully expressed on the 1st leaves of untreated plants, infection levels were assessed on a scale of 0 to 100 percent disease severity. Percent disease control was calculated using the ratio of disease severity on treated plants relative to untreated plants. Evaluation of Fungicidal Activity: Cucumber Anthracnose (Glomerella lagenarium; Anamorph: Colletotrichum lagenarium; Bayer Code COLLLA) Cucumber seedlings (variety Bush Pickle) were propagated in soil-less Metro mix, with each pot having one plant, and used in the test when 12 to 14 days old. Test plants were inoculated with an aqueous spore suspension of Colletotrichum lagenarium 24 hr after fungicide treatments. After inoculation the plants were kept in a dew room at 22° C. with 100% relative humidity for 48 hr to permit spores to germinate and infect the leaf. The plants were then transferred to a growth room set at 22° C. for disease to develop. Fungicide formulation, application and disease assessment on the sprayed leaves followed the procedures as described in the Example A.

Compound | LEPTNO disease control rating (Leptosphaeria nodorum) | ERYSGH disease control rating [1] | COLLLA disease control rating [2] | melting point
CCCC[C@@H]1[C@@H](Cc2ccccc2)COC[C@H](NC(=O)c2nccc(OC)c2OCOC(=O)C(C)C)C(=O)O[C@H]1C [compound 1] | A (>70) | A (>70) | A (>70) | 
CCCC[C@@H]1[C@@H](Cc2ccc(C(F)(F)F)cc2)COC[C@H](NC(=O)c2nccc(OC)c2OCOC(C)=O)C(=O)O[C@H]1C [compound 16] | A (>70) | A (>70) | A (>70) | 
COc1ccnc(C(=O)N[C@H]2COC[C@H](CC3CC3)[C@@H](c3ccccc3)[C@H](C)OC2=O)c1OC(C)=O [compound 100] | A (>70) | A (>70) | A (>70) | 
COc1ccnc(C(=O)N[C@H]2COC[C@H](Cc3ccccc3)[C@@H](Cc3ccccc3)[C@H](C)OC2=O)c1OC(C)=O [compound 27] | A (>70) | B (≤70) | A (>70) | 67 to 71 °C
COc1ccnc(C(=O)N[C@H]2COC[C@H](Cc3ccccc3)[C@@H](Cc3ccccc3)[C@H](C)OC2=O)c1OCOC(C)=O [Cmpd. 3, ((2-(((3S,7R,8R,9S)-7,8-dibenzyl-9-methyl-2-oxo-1,5-dioxonan-3-yl)carbamoyl)-4-methoxypyridin-3-yl)oxy)methyl acetate] | A (>70) | A (>70) | A (>70) | 56 to 60 °C
COc1ccnc(C(=O)N[C@H]2COC[C@H](c3ccccc3)[C@@H](c3ccccc3)[C@H](C)OC2=O)c1OCOC(C)=O [compound 7] |  | A (>70) | A (>70) | 59 to 64 °C
